The results in this text go back to patent US6677361B2, “Topical formulations for the transdermal delivery of niacin and methods of treating hyperlipidemia” (University of Kentucky Research Foundation, priority 2000, dated 2004).

For one data set, the system named is hairless mice. Briefly: Erythematous response after topical application of nicotinic acid esters to hairless mice. In kind it is in vivo. Conditions: for Erythematous Response: topical, 0.5 to 2.0% (wt/wt) in 200 mg lotion daily for one week, hairless mice; for cutaneous vasodilation: topical niacin esters. As to the method:
Female hairless mice (HRS-J. 6-8 weeks old were used.) These were housed in solid bottom cages provided with sterile feed and water […], with a 14:10 light-dark cycle. The nicotinic acid esters of Example 1 were applied with a gloved finger daily to the backs of hairless mice in 200 mg of Vanicream Lite™ skin care lotion (Pharmaceutical Specialties, Inc., containing purified water, white petrolatum, ceteareth alcohol and ceteareth-20, propylene glycol, sorbitol solution, simethicone, glyceryl monostearate, polyethylene glycol monostearate, sorbic acid and BHT) at concentrations in the range of 0.5 to 2.0% (wt/wt) for one week. Control mice received 200 mg of the lotion alone. […] Dorsal and ventral skin samples were immediately frozen in liquid nitrogen and stored at −80° C.

The test system of data set [1] is apoB100/CETP double transgenic mice. Briefly: Plasma lipid profiles of apoB100/CETP double transgenic mice, transdermal lauryl niacin ester vs oral niacin, 90 days. Type of data set: in vivo. The procedure:
Niacin intake was estimated from the water consumed.
For topical administration, niacin lauryl esters was applied daily to the shaved backs of mice in 200 mg of lotion at concentrations of 1, 2, 5 and 10% (wt/wt) for 13 weeks. Per 25-g mouse, the daily topical doses would be in the range of 34 to 340 mg/kg as niacin. Control mice received equal amounts of the vehicle lotion alone. A lipid analysis was performed as described in Example 4.
Improvement of lipid profiles of apoB100/CETP transgenic mice treated with niacin prodrug. The effect of transdermal delivery of lauryl niacin ester on plasma lipid profiles in a comparison with oral niacin in the apoB100/CETP double transgenic mice for 90 days. A total of six groups of six animals were used in this study. For topical administration, lauryl niacin ester was applied daily to the shaved backs of mice. For oral administration, niacin (sodium salt) was dissolved in the drinking water.

The next data set deals with mice. As to conditions: oral niacin; study not named at the place.
Where [2] appears, read: topical, daily to shaved backs, one-fourth the dose of the oral treatment.
Where [3] appears, read: oral, sodium salt in drinking water.

`CCCCCCOC(=O)c1cccnc1` [6 carbons]: the “Erythematous Response” value in the data set with hairless mice was “Yes”.

For the molecule `CCOC(=O)c1cccnc1` [2 carbons], the “Erythematous Response” value with hairless mice is recorded as “Yes”.

For the molecule `CCCCCCCCCCCCCCCCCCOC(=O)c1cccnc1` [18 carbons], in the data set with hairless mice, the “Erythematous Response” value is listed as “No”.

Turning to `CCCCCCCCCCCCCOC(=O)c1cccnc1` [13 carbons], the “Erythematous Response” value in the data set with hairless mice is recorded as “No”.

For `CCCCCCCCOC(=O)c1cccnc1` [8 carbons], the “Erythematous Response” value in the data set on hairless mice is on record as “Yes”.

Turning to `CCCCCCCCCCCCCCCOC(=O)c1cccnc1` [15 carbons], the “Erythematous Response” value in the data set with hairless mice was “No”.

As to `CCCCCCCCCCCCCCOC(=O)c1cccnc1` [14 carbons, myristyl nicotinate], in the data set with hairless mice, the cutaneous vasodilation result is recorded as “no cutaneous vasodilation” and the “Erythematous Response” value is reported as “No”.

`CCCCCCCCCCCCOC(=O)c1cccnc1` [12 carbons, lauryl nicotinate]: in data set [1] (setting [2]), the “HDL-C elevated by” value was 8%, the “LDL-C fraction lowered by” value came to 38%, the “total cholesterol lowered by” value was determined as 15% and the “triglycerides lowered by” value is given as 33%. In the data set on hairless mice, the cutaneous vasodilation result is recorded as “no cutaneous vasodilation” and the “Erythematous Response” value is “No”.

In the case of `COC(=O)c1cccnc1` [1 carbon], in the data set with hairless mice, the “Erythematous Response” value is reported as “Yes”.

Consider `CCCCOC(=O)c1cccnc1` [4 carbons], for which, in the data set with hairless mice, the “Erythematous Response” value is listed as “Yes”.

On to `O=C(O)c1cccnc1` [niacin, nicotinic acid], for which, in the data set with mice, the “total cholesterol lowered by” value is recorded as 12%. In addition, in data set [1] (setting [3]), the “HDL-C fraction lowered by” value was found to be 13%, the “LDL fraction lowered by” value was 45%, the “total cholesterol lowered by” value is given as 29% and the “triglycerides lowered by” value turned out to be 37%.

`CCCCCCCCCCOC(=O)c1cccnc1` [10 carbons]: the results for the “Erythematous Response” value with hairless mice and in the data set on hairless mice (listed as C10 ester) were “Slight” and “reduced erythematous response”, respectively.

Turning to `CCCCCCCCCCCCCCCCOC(=O)c1cccnc1` [16 carbons], in the data set with hairless mice, the “Erythematous Response” value is listed as “No”.
